According to patent US7883707B2, “Induction of antigen specific immunnologic tolerance” (priority 2002, dated 2011):

What was measured:
[1] = test system: antibody titer to rh-alpha-glucosidase (rhGAA); experiment: ELISA antibody titer to rhGAA in canines on weekly rhGAA infusions; format: in vivo, canine
Experimental: Enzyme Infusions. […] Infusions were performed with 0.056 mg/kg/week recombinant human alpha glucosidase in a 50 mL infusion of saline and 10 mM NaPO4, pH 5.8. […] Animals were monitored for anaphylactic reaction.

[2] = test system: fibroblasts; experiment: Half maximal uptake (Kuptake) of alpha-glucosidase into fibroblasts; format: cell-based
[3] = control canine ST, no drug treatment

- Kuptake (enzyme concentration at half maximal uptake) [2]: about 1 nanomolar
Substance: rhGAA: recombinant human alpha-glucosidase, lysosomal enzyme being developed to treat Pompe disease
- Antibody levels to rhGAA at the highest point ([1]; 0.056 mg/kg/week iv rhGAA, weeks 1-12): > 150 OD Units
- titer by week 4 [1, 3]: more than 100 OD units per microliter of serum
- titer subsequently (after week 4) [1, 3]: 100-200 units per microliter of serum
- higher titer of control dog by week 5 ([1]; control vs treated dog): 100 fold
